Measurements taken from patent US12371454B2, “Cyclic peptide compound having Kras inhibitory action” (priority 2019, dated 2025).
Starred links: 1 amine or outer side, 2 acyl side, 3 side chain; linkers in the order of their positions; H or OH if unused. Positions of bridges follow the written chain, without caps; N, C: chain ends. Non-standard residues stand in square brackets, D forms with d. Residues, ends and D or L forms follow the SMILES beside them. *: point of attachment. hPhe(3-Cl-4-CF3) = N[C@@H](CCc1ccc(C(F)(F)F)c(Cl)c1)C(=O)O; hPhe(3-F,4-CF3) = N[C@@H](CCc1ccc(C(F)(F)F)c(F)c1)C(=O)O; X38 = CN([C@@H](Cc1cccc(OC(F)(F)F)c1)C(=O)[*:2])[*:1]; NMePhe(3-CF3) = CN[C@@H](Cc1cccc(C(F)(F)F)c1)C(=O)O; NMePhe(4-CF3) = CN[C@@H](Cc1ccc(C(F)(F)F)cc1)C(=O)O; NMePhe(3-Br) = CN[C@@H](Cc1cccc(Br)c1)C(=O)O; NMePhe(3-Me) = CN[C@@H](Cc1cccc(C)c1)C(=O)O; NMePhe(2-Cl) = CN[C@@H](Cc1ccccc1Cl)C(=O)O; NMePhe(3-F) = CN[C@@H](Cc1cccc(F)c1)C(=O)O; NMeAla(cPent) = CN[C@@H](CC1CCCC1)C(=O)O; NMePhe(2-F) = CN[C@@H](Cc1ccccc1F)C(=O)O; NMeGly(cPent) = CN[C@H](C(=O)O)C1CCCC1; NMeCha = CN[C@@H](CC1CCCCC1)C(=O)O; NMeGly(cPr) = CN[C@H](C(=O)O)C1CC1; NMehLeu = CN[C@@H](CCC(C)C)C(=O)O; NMeD = CN[C@@H](CC(=O)O)C(=O)O; NMeL = CN[C@@H](CC(C)C)C(=O)O; NMeV = CN[C@H](C(=O)O)C(C)C; d(β3hA) = C[C@@H](N)CC(=O)O; NMeS = CN[C@@H](CO)C(=O)O; NMeA = CN[C@@H](C)C(=O)O; Piperidide = C1CCN(*)CC1; dNMeA = CN[C@H](C)C(=O)O; Ac5c = NC1(C(=O)O)CCCC1; Aze = O=C(O)[C@@H]1CCN1; CH2CMe2OH = CC(C)(O)C*; Aib = CC(C)(N)C(=O)O; Isopentyl = CC(C)CC*; Sar = CNCC(=O)O

target: T1, Kras and SOS1 (biotin-tagged human Kras loaded with GDP, His-tagged human SOS1) (Homo sapiens, UniProt P01116, G12D); experiment: Protein-protein interaction inhibition between Kras and SOS1 (KrasGl2D-SOS PPI) using AlphaScreen; type: binding; conditions: AlphaScreen; biotin-tagged human Kras loaded with GDP, His-tagged human SOS1; read-out: KRAS G12D-SOS PPI IC50
T1 construct: made in house; host or cells: E. coli (stated for Kras only)
T1 sequence (P01116 1-188 isoform P01116-2 G12D): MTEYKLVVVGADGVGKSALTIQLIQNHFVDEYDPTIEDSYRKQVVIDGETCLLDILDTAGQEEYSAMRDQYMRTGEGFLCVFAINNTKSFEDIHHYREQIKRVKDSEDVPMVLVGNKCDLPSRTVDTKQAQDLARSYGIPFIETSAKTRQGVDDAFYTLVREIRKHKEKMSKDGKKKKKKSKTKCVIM
In short: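 Binding between SOS1 and Kras is detected as bead-proximity luminescence: illuminate Ni-conjugated donors (680 nm), collect 520-620 nm emission from streptavidin-conjugated acceptors; Kras carries biotin and GDP loaded after purification, SOS1 carries a His tag.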

SMILES	IC50
CC[C@H](C)[C@@H]1NC(=O)[C@H](CC(C)C)N(C)C(=O)C[C@@H](C(=O)N2CCCCC2)N(C)C(=O)[C@H](CC(C)C)N(C)C(=O)C(C)(C)NC(=O)[C@H](COCC(C)(C)O)N(C)C(=O)[C@H](CCc2ccc(C(F)(F)F)c(Cl)c2)NC(=O)CN(C)C(=O)[C@H](COCCC(C)C)N(C)C(=O)CN(C)C(=O)CN(C)C1=O [Compound 1541] ([NMeL]I[Sar][Sar][NMeS](Isopentyl)[Sar][hPhe(3-Cl-4-CF3)][NMeS](CH2CMe2OH)[Aib][NMeL][NMeD]-Piperidide; lactam N-11)	4 nM
CC[C@H](C)[C@@H]1NC(=O)[C@H](CC(C)C)N(C)C(=O)C[C@@H](C)NC(=O)[C@H](C2CCCC2)N(C)C(=O)C2(CCCC2)NC(=O)[C@@H]2CCCN2C(=O)[C@H](CCc2ccc(C(F)(F)F)c(Cl)c2)NC(=O)[C@@H](C)N(C)C(=O)[C@H](Cc2ccc(C(F)(F)F)cc2)N(C)C(=O)CN(C)C(=O)CN(C)C1=O [Compound 1542] (cyclo([Ac5c][NMeGly(cPent)][d(β3hA)][NMeL]I[Sar][Sar][NMePhe(4-CF3)][dNMeA][hPhe(3-Cl-4-CF3)]P))	170 nM
CC[C@H](C)[C@@H]1NC(=O)[C@H](C)N(C)C(=O)C[C@@H](C)NC(=O)[C@H](C2CCCC2)N(C)C(=O)C2(CCCC2)NC(=O)[C@@H]2CCCN2C(=O)[C@H](CCc2ccc(C(F)(F)F)c(Cl)c2)NC(=O)[C@H]2CCCN2C(=O)[C@H](CC2CCCCC2)N(C)C(=O)CN(C)C(=O)CN(C)C1=O [Compound 1543] (cyclo([Ac5c][NMeGly(cPent)][d(β3hA)][NMeA]I[Sar][Sar][NMeCha][dP][hPhe(3-Cl-4-CF3)]P))	160 nM
CC[C@H](C)[C@@H]1NC(=O)[C@H](CC(C)C)N(C)C(=O)C[C@@H](C)NC(=O)[C@H](CC(C)C)N(C)C(=O)C2(CCCC2)NC(=O)[C@@H]2CCN2C(=O)[C@H](CCc2ccc(C(F)(F)F)c(F)c2)NC(=O)CN(C)C(=O)[C@H](CC2CCCCC2)N(C)C(=O)CN(C)C(=O)CN(C)C1=O [Compound 1545] (cyclo([Ac5c][NMeL][d(β3hA)][NMeL]I[Sar][Sar][NMeCha][Sar][hPhe(3-F,4-CF3)][Aze]))	42 nM
CC[C@H](C)[C@@H]1NC(=O)[C@H](CC(C)C)N(C)C(=O)C[C@@H](C)NC(=O)[C@H](CC(C)C)N(C)C(=O)C(C)(C)NC(=O)[C@H](COCC(C)(C)O)N(C)C(=O)[C@H](CCc2ccc(C(F)(F)F)c(Cl)c2)NC(=O)CN(C)C(=O)[C@H](COCCC(C)C)N(C)C(=O)CN(C)C(=O)CN(C)C1=O [Compound 1546] (cyclo([Aib][NMeL][d(β3hA)][NMeL]I[Sar][Sar][NMeS](Isopentyl)[Sar][hPhe(3-Cl-4-CF3)][NMeS](CH2CMe2OH)))	40 nM
CC[C@H](C)[C@@H]1NC(=O)[C@H](CC(C)C)N(C)C(=O)C[C@@H](C)NC(=O)[C@H](C(C)C)N(C)C(=O)C2(CCCC2)NC(=O)[C@@H]2CCCN2C(=O)[C@H](CCc2ccc(C(F)(F)F)c(Cl)c2)NC(=O)CN(C)C(=O)[C@H](Cc2cccc(C)c2)N(C)C(=O)CN(C)C(=O)CN(C)C1=O [Compound 1547] (cyclo([Ac5c][NMeV][d(β3hA)][NMeL]I[Sar][Sar][NMePhe(3-Me)][Sar][hPhe(3-Cl-4-CF3)]P))	22 nM
CC[C@H](C)[C@@H]1NC(=O)[C@H](CC(C)C)N(C)C(=O)C[C@@H](C(=O)N2CCCCC2)N(C)C(=O)[C@H](C(C)C)N(C)C(=O)C2(CCCC2)NC(=O)[C@@H]2CCCN2C(=O)[C@H](CCc2ccc(C(F)(F)F)c(Cl)c2)NC(=O)CN(C)C(=O)[C@H](CC2CCCCC2)N(C)C(=O)[C@@H]2CCN2C(=O)[C@H](CC2CCCC2)N(C)C1=O [Compound 1552] ([NMeL]I[NMeAla(cPent)][Aze][NMeCha][Sar][hPhe(3-Cl-4-CF3)]P[Ac5c][NMeV][NMeD]-Piperidide; lactam N-11)	61 nM
CC[C@H](C)[C@@H]1NC(=O)[C@H](CC(C)C)N(C)C(=O)C[C@@H](C(=O)N2CCCCC2)N(C)C(=O)[C@H](C(C)C)N(C)C(=O)C2(CCCC2)NC(=O)[C@@H]2CCCN2C(=O)[C@H](CCc2ccc(C(F)(F)F)c(Cl)c2)NC(=O)CN(C)C(=O)[C@H](CC2CCCCC2)N(C)C(=O)[C@@H]2CCN2C(=O)[C@H](C2CC2)N(C)C1=O [Compound 1553] ([NMeL]I[NMeGly(cPr)][Aze][NMeCha][Sar][hPhe(3-Cl-4-CF3)]P[Ac5c][NMeV][NMeD]-Piperidide; lactam N-11)	12 nM
CC[C@H](C)[C@@H]1NC(=O)[C@H](CC(C)C)N(C)C(=O)C[C@@H](C)NC(=O)[C@H](C(C)C)N(C)C(=O)C2(CCCC2)NC(=O)[C@@H]2CCCN2C(=O)[C@H](CCc2ccc(C(F)(F)F)c(Cl)c2)NC(=O)CN(C)C(=O)[C@H](Cc2cccc(F)c2)N(C)C(=O)CN(C)C(=O)CN(C)C1=O [Compound 1556] (cyclo([Ac5c][NMeV][d(β3hA)][NMeL]I[Sar][Sar][NMePhe(3-F)][Sar][hPhe(3-Cl-4-CF3)]P))	17 nM
CC[C@H](C)[C@@H]1NC(=O)[C@H](CC(C)C)N(C)C(=O)C[C@@H](C)NC(=O)[C@H](C(C)C)N(C)C(=O)C2(CCCC2)NC(=O)[C@@H]2CCCN2C(=O)[C@H](CCc2ccc(C(F)(F)F)c(Cl)c2)NC(=O)CN(C)C(=O)[C@H](Cc2cccc(OC(F)(F)F)c2)N(C)C(=O)CN(C)C(=O)CN(C)C1=O [Compound 1573] (cyclo([Ac5c][NMeV][d(β3hA)][NMeL]I[Sar][Sar][X38][Sar][hPhe(3-Cl-4-CF3)]P))	57 nM
CC[C@H](C)[C@@H]1NC(=O)[C@H](CC(C)C)N(C)C(=O)C[C@@H](C)NC(=O)[C@H](C(C)C)N(C)C(=O)C2(CCCC2)NC(=O)[C@@H]2CCCN2C(=O)[C@H](CCc2ccc(C(F)(F)F)c(Cl)c2)NC(=O)CN(C)C(=O)[C@H](Cc2cccc(C(F)(F)F)c2)N(C)C(=O)CN(C)C(=O)CN(C)C1=O [Compound 1575] (cyclo([Ac5c][NMeV][d(β3hA)][NMeL]I[Sar][Sar][NMePhe(3-CF3)][Sar][hPhe(3-Cl-4-CF3)]P))	45 nM
CC[C@H](C)[C@@H]1NC(=O)[C@H](CC(C)C)N(C)C(=O)C[C@@H](C(=O)N2CCCCC2)N(C)C(=O)[C@H](C(C)C)N(C)C(=O)C2(CCCC2)NC(=O)[C@@H]2CCCN2C(=O)[C@H](CCc2ccc(C(F)(F)F)c(Cl)c2)NC(=O)CN(C)C(=O)[C@H](CC2CCCCC2)N(C)C(=O)[C@@H]2CCN2C(=O)[C@H](CCC(C)C)N(C)C1=O [Compound 1577] ([NMeL]I[NMehLeu][Aze][NMeCha][Sar][hPhe(3-Cl-4-CF3)]P[Ac5c][NMeV][NMeD]-Piperidide; lactam N-11)	50 nM
CC[C@H](C)[C@@H]1NC(=O)[C@H](C)N(C)C(=O)C[C@@H](C(=O)N2CCCCC2)N(C)C(=O)[C@H](C(C)C)N(C)C(=O)C2(CCCC2)NC(=O)[C@@H]2CCCN2C(=O)[C@H](CCc2ccc(C(F)(F)F)c(Cl)c2)NC(=O)CN(C)C(=O)[C@H](CC2CCCCC2)N(C)C(=O)[C@@H]2CCN2C(=O)[C@H](CC2CCCCC2)N(C)C1=O [Compound 1580] ([NMeA]I[NMeCha][Aze][NMeCha][Sar][hPhe(3-Cl-4-CF3)]P[Ac5c][NMeV][NMeD]-Piperidide; lactam N-11)	11 nM
CC[C@H](C)[C@@H]1NC(=O)[C@H](CC(C)C)N(C)C(=O)C[C@@H](C)NC(=O)[C@H](C(C)C)N(C)C(=O)C2(CCCC2)NC(=O)[C@@H]2CCCN2C(=O)[C@H](CCc2ccc(C(F)(F)F)c(Cl)c2)NC(=O)CN(C)C(=O)[C@H](CC2CCCCC2)N(C)C(=O)[C@@H]2CCN2C(=O)[C@H](CC2CCCCC2)N(C)C1=O [Compound 1581] (cyclo([Ac5c][NMeV][d(β3hA)][NMeL]I[NMeCha][Aze][NMeCha][Sar][hPhe(3-Cl-4-CF3)]P))	230 nM
CC[C@H](C)[C@@H]1NC(=O)[C@H](CC(C)C)N(C)C(=O)C[C@@H](C)NC(=O)[C@H](C(C)C)N(C)C(=O)C2(CCCC2)NC(=O)[C@@H]2CCCN2C(=O)[C@H](CCc2ccc(C(F)(F)F)c(Cl)c2)NC(=O)CN(C)C(=O)[C@H](COc2ccccc2Cl)N(C)C(=O)CN(C)C(=O)CN(C)C1=O [Compound 1582]	35 nM
CC[C@H](C)[C@@H]1NC(=O)[C@H](CC(C)C)N(C)C(=O)C[C@@H](C)NC(=O)[C@H](C(C)C)N(C)C(=O)C2(CCCC2)NC(=O)[C@@H]2CCCN2C(=O)[C@H](CCc2ccc(C(F)(F)F)c(Cl)c2)NC(=O)CN(C)C(=O)[C@H](Cc2ccccc2F)N(C)C(=O)CN(C)C(=O)CN(C)C1=O [Compound 1585] (cyclo([Ac5c][NMeV][d(β3hA)][NMeL]I[Sar][Sar][NMePhe(2-F)][Sar][hPhe(3-Cl-4-CF3)]P))	43 nM
CC[C@H](C)[C@@H]1NC(=O)[C@H](CC(C)C)N(C)C(=O)C[C@@H](C)NC(=O)[C@H](C(C)C)N(C)C(=O)C2(CCCC2)NC(=O)[C@@H]2CCCN2C(=O)[C@H](CCc2ccc(C(F)(F)F)c(Cl)c2)NC(=O)CN(C)C(=O)[C@H](Cc2cccc(Br)c2)N(C)C(=O)CN(C)C(=O)CN(C)C1=O [Compound 1587] (cyclo([Ac5c][NMeV][d(β3hA)][NMeL]I[Sar][Sar][NMePhe(3-Br)][Sar][hPhe(3-Cl-4-CF3)]P))	31 nM
CC[C@H](C)[C@@H]1NC(=O)[C@H](CC(C)C)N(C)C(=O)C[C@@H](C)NC(=O)[C@H](C(C)C)N(C)C(=O)C2(CCCC2)NC(=O)[C@@H]2CCCN2C(=O)[C@H](CCc2ccc(C(F)(F)F)c(Cl)c2)NC(=O)CN(C)C(=O)[C@H](Cc2ccccc2Cl)N(C)C(=O)CN(C)C(=O)CN(C)C1=O [Compound 1591] (cyclo([Ac5c][NMeV][d(β3hA)][NMeL]I[Sar][Sar][NMePhe(2-Cl)][Sar][hPhe(3-Cl-4-CF3)]P))	97 nM
CC[C@H](C)[C@@H]1NC(=O)[C@H](C)N(C)C(=O)C[C@@H](C(=O)N2CCCCC2)N(C)C(=O)[C@H](C(C)C)N(C)C(=O)C2(CCCC2)NC(=O)[C@@H]2CCCN2C(=O)[C@H](CCc2ccc(C(F)(F)F)c(Cl)c2)NC(=O)CN(C)C(=O)[C@H](CC2CCCCC2)N(C)C(=O)[C@@H]2CCN2C(=O)[C@H](CCC(C)C)N(C)C1=O [Compound 1595] ([NMeA]I[NMehLeu][Aze][NMeCha][Sar][hPhe(3-Cl-4-CF3)]P[Ac5c][NMeV][NMeD]-Piperidide; lactam N-11)	15 nM
